The subject of one assay is K562. Description: Cytotoxicity against human K562 cells by MTT assay. The format is functional, cell-based. (In general: Formazan colour is commonly taken as a measure of viable cells.)
For the next assay, the system named is HCT-15. Description: Cytotoxicity against human HCT15 cells by MTT assay. The format is functional, cell-based.
Assay [1] addresses DNA topoisomerase 2-alpha (Homo sapiens) (UniProt P11388). Description: Inhibition of human topoisomerase 2-mediated relaxation of supercoiled pBR322 at 20 uM by agarose gel electrophoresis.
The next assay relates to MCF7. Description: Cytotoxicity against human MCF7 cells by MTT assay. The format is functional, cell-based.
The subject of the next assay is DU-145. Description: Cytotoxicity against human DU145 cells by MTT assay. Type of assay: functional, cell-based.
For assay [2], the target named is DNA topoisomerase 2-alpha (Homo sapiens) (UniProt P11388). Description: Inhibition of human topoisomerase 2-mediated relaxation of supercoiled pBR322 at 100 uM by agarose gel electrophoresis.
Chain of DNA topoisomerase 2-alpha (Homo sapiens) (P11388 whole entry): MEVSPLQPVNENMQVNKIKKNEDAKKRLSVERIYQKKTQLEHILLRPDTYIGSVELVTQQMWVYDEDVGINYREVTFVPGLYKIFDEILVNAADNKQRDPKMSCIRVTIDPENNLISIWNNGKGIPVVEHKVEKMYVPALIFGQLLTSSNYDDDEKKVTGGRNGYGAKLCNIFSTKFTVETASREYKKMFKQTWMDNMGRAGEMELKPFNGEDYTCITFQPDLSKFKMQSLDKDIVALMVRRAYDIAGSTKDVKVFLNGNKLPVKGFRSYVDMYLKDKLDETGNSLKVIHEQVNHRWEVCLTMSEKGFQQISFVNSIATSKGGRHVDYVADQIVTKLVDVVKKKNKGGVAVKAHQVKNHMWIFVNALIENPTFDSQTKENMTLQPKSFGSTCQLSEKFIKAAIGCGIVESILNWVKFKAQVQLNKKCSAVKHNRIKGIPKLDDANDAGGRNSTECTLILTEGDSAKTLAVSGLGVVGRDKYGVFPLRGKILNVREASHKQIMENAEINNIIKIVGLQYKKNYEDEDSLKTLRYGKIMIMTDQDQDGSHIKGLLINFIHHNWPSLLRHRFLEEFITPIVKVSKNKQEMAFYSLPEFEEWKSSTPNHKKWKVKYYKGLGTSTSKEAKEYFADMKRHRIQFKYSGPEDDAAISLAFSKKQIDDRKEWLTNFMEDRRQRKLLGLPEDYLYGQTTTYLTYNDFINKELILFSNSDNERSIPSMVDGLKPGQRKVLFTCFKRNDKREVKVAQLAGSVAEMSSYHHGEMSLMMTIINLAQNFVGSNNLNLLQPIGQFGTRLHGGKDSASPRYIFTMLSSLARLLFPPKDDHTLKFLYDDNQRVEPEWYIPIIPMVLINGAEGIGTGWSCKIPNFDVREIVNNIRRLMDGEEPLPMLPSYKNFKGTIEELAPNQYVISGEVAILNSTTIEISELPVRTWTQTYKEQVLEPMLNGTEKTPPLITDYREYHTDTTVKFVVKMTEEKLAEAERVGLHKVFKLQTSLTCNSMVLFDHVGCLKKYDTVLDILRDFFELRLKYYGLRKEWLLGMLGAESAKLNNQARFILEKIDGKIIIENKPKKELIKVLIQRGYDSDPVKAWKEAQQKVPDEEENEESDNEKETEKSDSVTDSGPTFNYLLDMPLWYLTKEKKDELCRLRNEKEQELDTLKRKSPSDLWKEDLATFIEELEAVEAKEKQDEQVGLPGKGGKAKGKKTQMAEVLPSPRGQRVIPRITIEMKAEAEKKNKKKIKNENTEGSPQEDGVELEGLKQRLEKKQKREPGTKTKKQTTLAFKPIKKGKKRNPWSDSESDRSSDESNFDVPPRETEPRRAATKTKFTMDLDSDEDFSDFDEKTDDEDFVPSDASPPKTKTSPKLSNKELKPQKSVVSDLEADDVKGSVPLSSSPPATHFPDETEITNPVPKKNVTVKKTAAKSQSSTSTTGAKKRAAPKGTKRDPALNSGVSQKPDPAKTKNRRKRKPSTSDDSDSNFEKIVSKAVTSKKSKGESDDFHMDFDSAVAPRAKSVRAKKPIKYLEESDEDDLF
Assay [3] addresses T1, DNA topoisomerase 1 (Homo sapiens) (UniProt P11387).
T1 sequence (whole entry): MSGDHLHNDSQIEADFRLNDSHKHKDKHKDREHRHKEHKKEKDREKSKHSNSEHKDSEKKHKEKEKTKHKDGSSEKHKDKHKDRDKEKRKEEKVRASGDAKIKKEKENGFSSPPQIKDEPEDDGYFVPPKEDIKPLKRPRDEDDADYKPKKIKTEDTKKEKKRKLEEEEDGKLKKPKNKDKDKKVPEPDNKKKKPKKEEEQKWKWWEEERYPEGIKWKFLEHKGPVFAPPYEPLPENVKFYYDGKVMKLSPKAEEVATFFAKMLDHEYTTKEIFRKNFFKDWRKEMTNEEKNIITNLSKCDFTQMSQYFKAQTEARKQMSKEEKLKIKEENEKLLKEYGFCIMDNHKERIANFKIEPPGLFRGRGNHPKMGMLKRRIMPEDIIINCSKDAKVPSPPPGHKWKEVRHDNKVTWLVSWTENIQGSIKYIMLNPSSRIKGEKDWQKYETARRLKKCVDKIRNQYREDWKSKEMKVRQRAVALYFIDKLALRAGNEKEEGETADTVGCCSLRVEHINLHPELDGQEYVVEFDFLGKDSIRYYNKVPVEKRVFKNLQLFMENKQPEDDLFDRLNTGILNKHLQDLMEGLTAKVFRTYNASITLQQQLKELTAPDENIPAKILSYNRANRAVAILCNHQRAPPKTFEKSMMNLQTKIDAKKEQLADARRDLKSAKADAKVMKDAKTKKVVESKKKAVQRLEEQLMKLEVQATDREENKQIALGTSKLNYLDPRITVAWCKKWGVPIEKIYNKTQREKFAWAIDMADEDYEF
Description: Inhibition of human topoisomerase 1-mediated relaxation of supercoiled pBR322 at 100 uM by agarose gel electrophoresis.

For the molecule `COc1ccc(C(=O)/C=C/c2ccc(OCC3CS3)cc2)cc1` (stereo not drawn), the half-maximal inhibitory concentration (IC50) is 32.5 µM with K562, 28.4 µM in the assay on HCT-15, 11.5 µM in the assay on MCF7 and > 50 µM in the assay with DU-145. Besides, the inhibition was determined as 15.5% in assay [1], 31.6% in assay [2] and 0% in assay [3].
Take `CC[C@@]1(O)C(=O)OCc2c1cc1n(c2=O)Cc2cc3ccccc3nc2-1` [CAMPTOTHECIN]: the IC50 in the assay on K562 came out at 0.59 µM; in the assay with HCT-15 it was 0.8 µM; in the assay on MCF7 it was 2.43 µM; with DU-145 it was 0.61 µM.
As for `COc1cc([C@@H]2c3cc4c(cc3[C@@H](O[C@@H]3O[C@@H]5CO[C@@H](C)O[C@H]5[C@H](O)[C@H]3O)[C@H]3COC(=O)[C@H]23)OCO4)cc(OC)c1O` [ETOPOSIDE], the IC50 was determined as 1.21 µM in the assay with K562, 2.03 µM with HCT-15, 1.98 µM in the assay with MCF7 and 1.44 µM in the assay with DU-145. The inhibition in assay [1] was 38%; in assay [2], 61.9%.
As to `O=C(/C=C/c1ccc(OCC2CS2)cc1)c1ccc(OCC2CS2)cc1` (stereo not drawn), the half-maximal inhibitory concentration (IC50) was 13.4 µM in the assay with K562, 12.2 µM in the assay on HCT-15, 21.7 µM in the assay with MCF7 and > 50 µM in the assay on DU-145. Besides, the results for the inhibition in assay [1], in assay [2] and in assay [3] were 18%, 34.6% and 0%, respectively.
In the case of `COc1ccc(C(=O)/C=C/c2ccc(OCC(O)CCl)cc2)cc1` (stereo not drawn), the IC50 in the assay on K562 is 29.1 µM; in the assay on HCT-15, 20.6 µM; in the assay with MCF7 it was 29.2 µM; with DU-145 it was > 50 µM. For the same molecule, the inhibition in assay [1] worked out at 14%; in assay [2], 30.1%; in assay [3], 0%.
With `COc1ccc(/C=C/C(=O)c2ccc(OCC(O)CCl)cc2)cc1` (stereo not drawn), the IC50 with K562 is 16.2 µM; with HCT-15 it was 20.5 µM; with MCF7, 18.4 µM; in the assay on DU-145 it was > 50 µM. Also, the figures for the inhibition in assay [1], in assay [2] and in assay [3] were 16.3%, 34.9% and 0%, respectively.
For `COc1ccc(/C=C/C(=O)c2ccc(OCC3CS3)cc2OCC2CS2)cc1` (stereo not drawn), the concentration for half-maximal inhibition (IC50) turned out to be 7.6 µM in the assay with K562, 0.23 µM in the assay on HCT-15, 0.49 µM in the assay on MCF7 and 1.07 µM in the assay with DU-145. The inhibition in assay [1] was determined as 20.8%; in assay [2], 61%; in assay [3] it was 0%.
Take `COc1ccc(C(=O)/C=C/c2ccc(OCC3CO3)cc2)cc1` (stereo not drawn): the half-inhibitory concentration (IC50) with K562 stood at 33.5 µM; in the assay with HCT-15, 30.4 µM; with MCF7, 10.9 µM; with DU-145, 36.9 µM. Further, the results for the inhibition in assay [1], in assay [2] and in assay [3] were 15.2%, 22% and 0%, respectively.
Take `O=C(/C=C/c1ccc(OCC2CO2)cc1)c1ccc(OCC2CO2)cc1` (stereo not drawn): the IC50 with K562 was 7.27 µM; in the assay on HCT-15, 18.5 µM; in the assay on MCF7, 3.87 µM; with DU-145, > 50 µM. Also, the inhibition in assay [1] was determined as 19.3%; in assay [2], 33.5%; in assay [3] it was 0%.
With `COc1cccc2c1C(=O)c1c(O)c3c(c(O)c1C2=O)C[C@@](O)(C(=O)CO)C[C@@H]3O[C@H]1C[C@H](N)[C@H](O)[C@H](C)O1` [DOXORUBICIN], the concentration for half-maximal inhibition (IC50) in the assay with K562 turned out to be 1.33 µM; in the assay with HCT-15 it was 1.25 µM; in the assay on DU-145, 1.75 µM.
Take `COc1ccc(/C=C/C(=O)c2ccc(OCC3CS3)cc2)cc1` (stereo not drawn): the IC50 in the assay with K562 is > 50 µM; in the assay on HCT-15, 10.1 µM; with MCF7 it was 23.6 µM; in the assay on DU-145 it was 19.4 µM. Also, the inhibition in assay [1] is 14.8%; in assay [2], 31.6%; in assay [3] it was 0%.
`COc1cc(OCC2CO2)ccc1/C=C/C(=O)c1ccc(OCC2CO2)cc1` (stereo not drawn): the half-inhibitory concentration (IC50) in the assay on K562 is 13.7 µM; in the assay on HCT-15 it was 4.82 µM; in the assay on MCF7, 3.64 µM; with DU-145, > 50 µM. For the same molecule, the inhibition is 14% in assay [1], 28.5% in assay [2] and 0% in assay [3].
In the case of `COc1ccc(/C=C/C(=O)c2ccc(OCC3CO3)cc2)cc1` (stereo not drawn), the half-inhibitory concentration (IC50) in the assay on K562 worked out at 27.9 µM; in the assay on HCT-15, 27.1 µM; in the assay with MCF7, 11.6 µM; with DU-145 it was 43.3 µM. The inhibition in assay [1] turned out to be 17.6%; in assay [2], 28.8%; in assay [3] it was 0%.

Broadly, the IC50 is the concentration needed to halve the response being measured. Low values mean greater potency, high ones weaker potency. The inhibition is the percentage by which the read-out fell short of the control. Higher therefore signals a response far below the control.

The record behind these values is ChEMBL document CHEMBL1641543, “Synthesis and topoisomerase II inhibitory and cytotoxic activity of oxiranylmethoxy- and thiiranylmethoxy-chalcone derivatives” (Bioorg Med Chem Lett, 2011).
